Laboratory results as given in patent US20240192237A1 (curantis UG, priority 2021, published 2024).

Experiments:
[1] = system: patients with schizophrenia; assay: Estimated correlation between CBD plasma concentration and percentage change of PANSS score at day 14; assay type: in vivo; conditions: for Estimated CBD plasma concentration, PANSS_N, average / Estimated CBD plasma concentration, PANSS_P, average / Estimated CBD plasma concentration, PANSS_T, average / Estimated CBD plasma concentration, PANSS_G, average: two weeks after commencement
Text: In general, it is expected that a percentage change of 50% of the PANSS score(s) vis-à-vis the baseline score after four to six weeks of treatment indicates a significant improvement of the PANSS score(s) (see Correll C. U., “Quantifying clinical relevance in the treatment of schizophrenia, Clinical Therapeutics”, Vol. 33, Number 12, 2011, B16-B39).
Since the PANSS score(s) cover symptoms experienced or observed during the preceding 7 days, the minimum required observation period is one week. To avoid an overlap to the observation of initial symptoms, a treatment period of 2 weeks is considered a minimum reliable period. Therefore, we analyzed the treatment effect after 2 weeks of treatment. Due to the analyzed shortened treatment period a percentage change of 25% of the PANSS score(s) vis-à-vis the baseline score indicates a significant improvement of the PANSS score(s).

[2] = CBD trough plasma concentration in clinical trials CBD-CT1 and CBD-PT (LC-MS/MS); assay type: in vivo, patients; conditions: for concentration at 7 day: Day 7, mean ± SD; for concentration at 14 day: Day 14, mean ± SD
Protocol: CBD was administered as an oral dose in a capsule formulation. The dose was increased during the first week from 200 mg/d to 800 mg/d (4×200 mg) and remained at this level for the rest of the study period. Due to serious unwanted effects, the dose could be reduced irreversibly to 600 mg/d starting with day 15. […] Dose applications, blood sampling, and assessment of PANSS followed the time schedule presented below. Additional treatment with 7.5 mg lorazepam per day during the whole study period was permitted. […]
Eighteen patients with a diagnosis of schizophrenia or schizophreniform disorder should be included in this trial per protocol. Because dropouts had to be replaced by a new patient a total number of 29 patients was randomized from February 2006 to June 2008. All randomized patients complied with all inclusion and exclusion criteria: age between 18 and 65, male and female, specific DSM-IV diagnoses, initial BPRS score≥36, no pregnancy or lactation phase, reliable contraception, no lack of accountability, no other relevant interferences, no treatment with depot-antipsychotics during the last three months, no severe internal or neurological illness, no QTc prolongation, no acute suicidality nor endangerment of others by the patient. […] Treatment lasted four weeks: the first period with two weeks of CBD or placebo treatment was followed by a second period with a two-week treatment of placebo or CBD, respectively. There was no washout period between the two treatments. […] The dose could be reduced irreversibly to 400 mg/d in case of serious unwanted effects. […] The PANSS was applied at baseline and day 14 and 28. Dose applications, blood sampling, and assessment of PANSS followed the time schedule presented below. Additional treatment with 5.0 mg lorazepam per day during the whole study period was permitted. […]
Therefore, documentation of time points when CBD was administered and when blood samples were taken was limited and not included in the electronic data. Information on possible dose reductions e.g. due to adverse events were missing in the electronic data, too. In cooperation with the PI, time points were inputted based on standard routines on the ward: application of study medication was set to 9:00 AM, 12:30 PM, 6:30 PM, and 10:00 PM, and blood sampling was scheduled at 8:45 AM. Assessment of the PANSS was also timed to 8:45 AM. The loss of accuracy by standardizing times was considered acceptable because the time interval between doses and blood sampling is long, so small deviations would have no major impact. Information on actually applied doses or reduced doses was updated in cooperation with a member of the PI's research group. Based on notes in archived patient's case report files and other paper-based documents the electronic data was adjusted.
After consultation with the PI, these values were replaced with 0 because all patients with positive drug screening were excluded from the clinical trial according to the study protocol. Baseline values>0 may result from errors in procedure e.g. when blood samples were taken after dose application. Therefore, the replacement is considered as being equivalent to an imputation of a predose measurement which was not conducted.

[3] = both sexes, human, plasma, oral capsule 600 mg/d, cross-over with placebo

For C=C(C)[C@@H]1CCC(C)=C[C@H]1c1c(O)cc(CCCCC)cc1O [CBD, cannabidiol], the “Estimated CBD plasma concentration, PANSS_N, average” value ([1]; PANSS delta 10% vs baseline, range (12.9; 28.9)) was 17.8 µg/L, the “Estimated CBD plasma concentration, PANSS_P, average” value ([1]; PANSS delta 10% vs baseline, range (13.0; 35.7)) was 19.1 µg/L and the “Estimated CBD plasma concentration, PANSS_T, average” value ([1]; PANSS delta 10% vs baseline, range (13.4; 25.5)) was 17.5 µg/L. For the same compound, the “Estimated CBD plasma concentration, PANSS_N, average” value ([1]; PANSS delta 20% vs baseline, range (25.7; 57.7)) was 35.6 µg/L, the “Estimated CBD plasma concentration, PANSS_P, average” value ([1]; PANSS delta 20% vs baseline, range (26.0; 71.4)) was 38.2 µg/L and the “Estimated CBD plasma concentration, PANSS_G, average” value ([1]; PANSS delta 20% vs baseline, range (26.6; 49.2)) was 34.5 µg/L. The “Estimated CBD plasma concentration, PANSS_T, average” value ([1]; PANSS delta 20% vs baseline, range (26.7; 50.9)) was 35.0 µg/L, the “Estimated CBD plasma concentration, PANSS_N, average” value ([1]; PANSS delta 25% vs baseline, range (32.2; 72.1)) was 44.5 µg/L and the “Estimated CBD plasma concentration, PANSS_P, average” value ([1]; PANSS delta 25% vs baseline, range (32.5; 89.3)) was 47.7 µg/L. For the same compound, the “Estimated CBD plasma concentration, PANSS_G, average” value ([1]; PANSS delta 25% vs baseline, range (33.2; 61.5)) was 43.1 µg/L, the “Estimated CBD plasma concentration, PANSS_T, average” value ([1]; PANSS delta 25% vs baseline, range (33.4; 63.7)) was 43.8 µg/L and the “Estimated CBD plasma concentration, PANSS_N, average” value ([1]; PANSS delta 30% vs baseline, range (38.6; 86.6)) was 53.4 µg/L. For the same compound, the “Estimated CBD plasma concentration, PANSS_P, average” value ([1]; PANSS delta 30% vs baseline, range (39.1; 107.1)) was 57.2 µg/L, the “Estimated CBD plasma concentration, PANSS_G, average” value ([1]; PANSS delta 30% vs baseline, range (39.8; 73.8)) was 51.8 µg/L and the “Estimated CBD plasma concentration, PANSS_T, average” value ([1]; PANSS delta 30% vs baseline, range (40.1; 76.4)) was 52.6 µg/L. For the same compound, the “Estimated CBD plasma concentration, PANSS_N, average” value ([1]; PANSS delta 40% vs baseline, range (51.5; 115.4)) was 71.2 µg/L, the “Estimated CBD plasma concentration, PANSS_P, average” value ([1]; PANSS delta 40% vs baseline, range (52.1; 142.8)) was 76.3 µg/L and the “Estimated CBD plasma concentration, PANSS_G, average” value ([1]; PANSS delta 40% vs baseline, range (53.1; 98.4)) was 69.0 µg/L. The “Estimated CBD plasma concentration, PANSS_T, average” value ([1]; PANSS delta 40% vs baseline, range (53.4; 101.9)) was 70.1 µg/L, the “Estimated CBD plasma concentration, PANSS_N, average” value ([1]; PANSS delta 50% vs baseline, range (64.3; 144.3)) was 89.0 µg/L and the “Estimated CBD plasma concentration, PANSS_P, average” value ([1]; PANSS delta 50% vs baseline, range (65.1; 178.5)) was 95.4 µg/L. The “Estimated CBD plasma concentration, PANSS_G, average” value ([1]; PANSS delta 50% vs baseline, range (66.4; 123.0)) was 86.3 µg/L, the “Estimated CBD plasma concentration, PANSS_T, average” value ([1]; PANSS delta 50% vs baseline, range (66.8; 127.3)) was 87.6 µg/L and the “Estimated CBD plasma concentration, PANSS_P, average” value ([1]; PANSS delta 60% vs baseline, range (78.1; 214.2)) was 114.5 µg/L. The “Estimated CBD plasma concentration, PANSS_G, average” value ([1]; PANSS delta 60% vs baseline, range (79.7; 147.6)) was 103.5 µg/L, the “Estimated CBD plasma concentration, PANSS_T, average” value ([1]; PANSS delta 60% vs baseline, range (80.1; 152.8)) was 105.1 µg/L and the “Estimated CBD plasma concentration, PANSS_N, average” value ([1]; PANSS delta 70% vs baseline, range (90.1; 202.0)) was 124.6 µg/L. For the same compound, the “Estimated CBD plasma concentration, PANSS_P, average” value ([1]; PANSS delta 70% vs baseline, range (91.1; 249.9)) was 133.6 µg/L, the “Estimated CBD plasma concentration, PANSS_G, average” value ([1]; PANSS delta 70% vs baseline, range (93.0; 172.2)) was 120.8 µg/L and the “Estimated CBD plasma concentration, PANSS_T, average” value ([1]; PANSS delta 70% vs baseline, range (93.5; 178.3)) was 122.6 µg/L. For the same compound, the “Estimated CBD plasma concentration, PANSS_N, average” value ([1]; PANSS delta 75% vs baseline, range (96.5; 216.4)) was 133.5 µg/L, the “Estimated CBD plasma concentration, PANSS_P, average” value ([1]; PANSS delta 75% vs baseline, range (97.6; 267.8)) was 143.1 µg/L and the “Estimated CBD plasma concentration, PANSS_G, average” value ([1]; PANSS delta 75% vs baseline, range (99.6; 184.5)) was 129.4 µg/L. The “Estimated CBD plasma concentration, PANSS_T, average” value ([1]; PANSS delta 75% vs baseline, range (100.1; 191.0)) was 131.4 µg/L, the “Estimated CBD plasma concentration, PANSS_N, average” value ([1]; PANSS delta 80% vs baseline, range (102.9; 230.8)) was 142.4 µg/L and the “Estimated CBD plasma concentration, PANSS_P, average” value ([1]; PANSS delta 80% vs baseline, range (104.1; 285.6)) was 152.6 µg/L. For the same compound, the “Estimated CBD plasma concentration, PANSS_G, average” value ([1]; PANSS delta 80% vs baseline, range (106.3; 196.8)) was 138.0 µg/L, the “Estimated CBD plasma concentration, PANSS_T, average” value ([1]; PANSS delta 80% vs baseline, range ([…]; 203.7)) was 140.2 µg/L and the “Estimated CBD plasma concentration, PANSS_N, average” value ([1]; PANSS delta 90% vs baseline, range (115.8; 259.7)) was 160.2 µg/L. The “Estimated CBD plasma concentration, PANSS_P, average” value ([1]; PANSS delta 90% vs baseline, range (117.2; 321.3)) was 171.7 µg/L, the “Estimated CBD plasma concentration, PANSS_G, average” value ([1]; PANSS delta 90% vs baseline, range (119.5; 221.4)) was 155.3 µg/L and the “Estimated CBD plasma concentration, PANSS_T, average” value ([1]; PANSS delta 90% vs baseline, range (120.2; 229.2)) was 157.7 µg/L. The “Estimated CBD plasma concentration, PANSS_N, average” value ([1]; PANSS delta 100% vs baseline, range (128.7; 288.5)) was 178.0 µg/L, the “Estimated CBD plasma concentration, PANSS_P, average” value ([1]; PANSS delta 100% vs baseline, range (130.2; 357.0)) was 190.8 µg/L and the “Estimated CBD plasma concentration, PANSS_G, average” value ([1]; PANSS delta 100% vs baseline, range (132.8; 246.0)) was 172.5 µg/L. For the same compound, the “Estimated CBD plasma concentration, PANSS_T, average” value ([1]; PANSS delta 100% vs baseline, range (133.5; 254.6)) was 175.2 µg/L, the “CBD plasma concentration that results in the required percentage change (25%) of the PANSS score(s)” value ([1]; after 2 weeks of treatment) was “at least 25 μg/l” and the “CBD plasma concentration, CBD-PT” value ([2]; Day 21, mean ± SD, cross-over, 0 PT patients under CBD treatment per table) was 4.0 ± 1.2 µg/L. For the same compound, the concentration at 28 day ([2]; both sexes, human, plasma, oral, 600 mg/d) was 2.3 ± 1 ng/mL, the concentration at 7 day ([2]; both sexes, human, plasma, oral, 600 mg/d, CBD-CT1 + CBD-PT pooled (only PT measured)) was 14.1 ± 9.1 ng/mL and the concentration at 21 day ([2]; both sexes, human, plasma, oral, 600 mg/d, Day 21, mean ± SD, pooled (only PT measured)) was 4 ± 1.2 ng/mL. The concentration at 7 day [2, 3] was 14.1 ± 9.1 ng/mL, the concentration at 14 day [2, 3] was 19.3 ± 8.7 ng/mL and the concentration at 14 day ([2]; human, plasma, oral, CBD-CT1 + CBD-PT pooled) was 35.4 ± 22.6 ng/mL. For the same compound, the concentration at 28 day ([2]; human, plasma, oral, Day 28, mean ± SD, CBD-CT1 + CBD-PT pooled) was 29.2 ± 27.8 ng/mL, the concentration at 14 day ([2]; human, plasma, oral capsule 800 mg/d (titrated from 200 mg/d in first week), trough) was 50.5 ± 21.2 ng/mL and the concentration at 28 day ([2]; human, plasma, Day 28, mean ± SD, oral capsule 800 mg/d, trough) was 42.6 ± 24.7 ng/mL.
